Columns and labels:
CYP11A1 = target: T1, CYP11A1 (Homo sapiens, UniProt P05108); assay: CYP11A1 inhibition, isocaproic acid release assay (IARA) in H295R cells; format: cell-based; conditions: human H295R adrenocortical carcinoma cell line, three days, 3 nM [24,25-3H]-labelled cholesterol; read-out: IC50 on CYP11A1 inhibition (Group)
T1 construct: human H295R adrenocortical carcinoma cell line was used as source of enzyme; endogenous in cells; host or cells: H295R human adrenocortical carcinoma cells
T1 sequence (P05108 40-521): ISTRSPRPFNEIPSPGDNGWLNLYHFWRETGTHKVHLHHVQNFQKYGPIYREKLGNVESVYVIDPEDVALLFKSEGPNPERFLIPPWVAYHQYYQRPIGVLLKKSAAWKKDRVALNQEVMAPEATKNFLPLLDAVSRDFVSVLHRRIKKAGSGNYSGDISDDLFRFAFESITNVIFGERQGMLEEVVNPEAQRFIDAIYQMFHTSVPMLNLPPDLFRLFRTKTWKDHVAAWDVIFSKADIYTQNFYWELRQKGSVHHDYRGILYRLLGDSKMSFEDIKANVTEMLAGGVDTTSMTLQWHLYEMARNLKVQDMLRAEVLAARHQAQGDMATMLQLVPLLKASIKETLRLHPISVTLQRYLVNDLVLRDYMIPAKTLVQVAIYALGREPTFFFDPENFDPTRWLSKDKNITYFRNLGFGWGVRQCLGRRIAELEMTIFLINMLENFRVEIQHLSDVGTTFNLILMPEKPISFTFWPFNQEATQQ
Protocol: The ability of the test compounds to inhibit conversion of cholesterol to pregnenolone and isocaproic acid was measured by modification of isocaproic acid release assay (IARA) described by Ruangwises et al. (Biology of Reproduction 1991; 45(1):143-50) except that human H295R adrenocortical carcinoma cell line was used as source of enzyme and extraction was done with dextran-coated charcoal suspension (Isomaa, V. et al., Endocrinology 1982; 111(3):833-843). […] To determine the half maximal inhibitory concentration (IC50) of the test compounds on CYP11A1 inhibition, the cells were treated for three days with increasing concentrations of the test compounds in the presence of 3 nM [24,25-3H]-labelled cholesterol (American Radiolabelled Chemicals). The final DMSO concentration was 1%. Cell culture medium was extracted with dextran-coated charcoal suspension and the radiolabelled isocaproic acid was determined by mixing 100 μl of supernatant fraction in 200 μl of scintillation fluid (OptiPhase SuperMix, Perkin Elmer). Radioactivity was measured using a Microbeta scintillation counter (1450 MicroBeta Trilux, Wallac). All the test compounds were studied at 10 concentrations in duplicates.

[1] = target: recombinant human cytochrome P450 (CYP) CYP3A4 enzyme (Homo sapiens, UniProt P08684); assay: Formation of reactive metabolites, trapping with GSH, KCN and SCA; conditions: recombinant human CYP3A4, NADPH, 1 hour, pH 7.4
Sequence of recombinant human cytochrome P450 (CYP) CYP3A4 enzyme (P08684 whole entry): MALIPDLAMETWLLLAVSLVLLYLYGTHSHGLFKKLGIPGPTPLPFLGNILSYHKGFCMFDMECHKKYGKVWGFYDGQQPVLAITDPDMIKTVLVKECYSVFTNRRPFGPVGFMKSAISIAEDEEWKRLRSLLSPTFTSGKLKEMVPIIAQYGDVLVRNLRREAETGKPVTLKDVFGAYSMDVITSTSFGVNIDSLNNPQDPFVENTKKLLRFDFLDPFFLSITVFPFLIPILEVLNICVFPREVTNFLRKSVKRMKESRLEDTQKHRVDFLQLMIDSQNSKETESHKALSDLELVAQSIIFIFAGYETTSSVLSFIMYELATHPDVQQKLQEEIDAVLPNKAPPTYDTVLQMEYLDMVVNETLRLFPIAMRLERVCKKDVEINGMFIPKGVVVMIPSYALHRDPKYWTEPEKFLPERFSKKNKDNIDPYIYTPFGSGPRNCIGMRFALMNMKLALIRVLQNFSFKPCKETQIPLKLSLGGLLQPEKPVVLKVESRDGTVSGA
Protocol: Formation of reactive metabolites was studied as described in Grillo, M., Expert Opin. […] (2015), 11(8):1281-1302 by incubating test compounds with recombinant human cytochrome P450 (CYP) CYP3A4 enzyme in the presence of cofactor NADPH and trapping agents glutathione (GSH), potassium cyanide (KCN) and semicarbazide (SCA).
Compounds were dissolved in DMSO and diluted in phosphate buffer (pH 7.4) to obtain the final incubation concentration 1 or 10 μM. Compounds were incubated with one trapping agent (mixture of unlabelled and ^13C^15N-labelled trapper 1:1) at a time with cofactor NADPH (actual samples) and without NADPH (control samples). Incubation time was 1 hour. Samples at timepoint 0 min (before incubation) and 60 min (after incubation) were analysed using ultra high-pressure liquid chromatography (UHPLC) coupled with high-resolution mass spectrometry (HRMS). Tentative identification of trapped metabolites was based on accurate masses of protonated molecules and product ion spectra of found metabolites and accurate mass differences between unlabelled and labelled trapping agents reacted with reactive metabolites.
The metabolites were classified as “major” if the peak area after incubation was over 10% of parent peak area before incubation. If peak area was between 1% and 10%, metabolites were classified as “minor” and if peak area was less than 1%, metabolite was classified as “trace”.

## CC(=O)c1ccc2c(c1)CN(Cc1cc(=O)c(OCC3CCN(S(C)(=O)=O)CC3)co1)C2 [Compound 89, 2-((5-Acetylisoindolin-2-yl)methyl)-5-((1-(methylsulfonyl)piperidin-4-yl)-methoxy)-4H-pyran-4-one]
CYP11A1
  IC50: < 100 nM
[1]; test compound 10 μM
  Number of CN trapped metabolites: 0
  Number of GSH trapped metabolites: 0
  Number of SCA trapped metabolites: 1 (trace)

## CC(O)c1ccc2c(c1)CN(Cc1cc(=O)c(OCC3CCN(S(C)(=O)=O)CC3)co1)C2 (centres unmarked) [Compound 93, 2-((5-(1-Hydroxyethyl)isoindolin-2-yl)methyl)-5-((1-(methylsulfonyl)piperidin-4-yl)methoxy)-4H-pyran-4-one]
CYP11A1
  IC50: 201 to 2000 nM
[1]; test compound 10 μM
  Number of CN trapped metabolites: 0
  Number of GSH trapped metabolites: 0
  Number of SCA trapped metabolites: 3 (trace)

## CS(=O)(=O)c1cc(CN2Cc3ccc(-c4nnco4)cc3C2)ccc1OCC1CCN(S(C)(=O)=O)CC1 [Compound 10, 2-(2-(3-(Methylsulfonyl)-4-((1-(methylsulfonyl)piperidin-4-yl)methoxy)benzyl)-isoindolin-5-yl)-1,3,4-oxadiazole]
CYP11A1
  IC50: 101 to 200 nM
[1]; test compound 10 μM
  Number of CN trapped metabolites: 1 (trace)
  Number of GSH trapped metabolites: 0
  Number of SCA trapped metabolites: 2 (trace)

## CS(=O)(=O)N1CCC(COc2coc(CN3Cc4ccc(-c5ncon5)cc4C3)cc2=O)CC1 [Compound 8, 2-((5-(1,2,4-Oxadiazol-3-yl)isoindolin-2-yl)methyl)-5-((1-(methylsulfonyl)-piperidin-4-yl)methoxy)-4H-pyran-4-one]
CYP11A1
  IC50: 101 to 200 nM
[1]; test compound 10 μM
  Number of CN trapped metabolites: 0
  Number of GSH trapped metabolites: 1 (trace)

## CS(=O)(=O)N1CCC(COc2coc(CN3Cc4ccc(-n5cccn5)cc4C3)cc2=O)CC1 [Compound 7, 2-((5-(1H-Pyrazol-1-yl)isoindolin-2-yl)methyl)-5-((1-(methylsulfonyl)piperidin-4-yl)methoxy)-4H-pyran-4-one]
CYP11A1
  IC50: 101 to 200 nM
[1]; test compound 10 μM
  Number of CN trapped metabolites: 0
  Number of GSH trapped metabolites: 0
  Number of SCA trapped metabolites: 1 (trace)

## CS(=O)(=O)N1CCC(COc2coc(CN3Cc4ccc(-c5nnco5)cc4C3)cc2=O)CC1 [Compound 1, 2-((5-(1,3,4-Oxadiazol-2-yl)isoindolin-2-yl)methyl)-5-(((methylsulfonyl)piperidin-4-yl)methoxy)-4H-pyran-4-one]
CYP11A1
  IC50: 101 to 200 nM
[1]; test compound 10 μM
  Number of CN trapped metabolites: 0
  Number of GSH trapped metabolites: 0
  Number of SCA trapped metabolites: 2 (trace)

## CC(C)(C)OC(=O)N1CC2(CC(COc3coc(CN4CCc5ccccc5C4)cc3=O)C2)C1 [Compound 30, tert-Butyl 6-(((6-((3,4-dihydroisoquinolin-2(1H)-yl)methyl)-4-oxo-4H-pyran-3-yl)oxy)methyl)-2-azaspiro[3.3]heptane-2-carboxylate]
CYP11A1
  IC50: 201 to 2000 nM
[1]; test compound 1 μM
  Number of CN trapped metabolites: 0
  Number of GSH trapped metabolites: 0
  Number of SCA trapped metabolites: 0

## C[C@H](c1cc(=O)c(OCC2CCN(S(C)(=O)=O)CC2)co1)N1Cc2ccccc2[C@H]2C[C@H]21 (relative stereo) [Compound 24b, 5-((1-(Methylsulfonyl)piperidin-4-yl)methoxy)-2-((R*)-1-((1aR*,7bR*)-1,1a,3,7b-tetrahydro-2H-cyclopropa[c]isoquinolin-2-yl)ethyl)-4H-pyran-4-one]
[1]; test compound 10 μM
  Number of CN trapped metabolites: 2 (trace)
  Number of GSH trapped metabolites: 0
  Number of SCA trapped metabolites: 0

## C/C(=N\O)c1ccc2c(c1)CN(Cc1cc(=O)c(OCC3CCN(S(C)(=O)=O)CC3)co1)C2 [Compound 90, (E)-2-((5-(1-(Hydroxyimino)ethyl)isoindolin-2-yl)methyl)-5-((1-(methylsulfonyl)piperidin-4-yl)methoxy)-4H-pyran-4-one]
CYP11A1
  IC50: 101 to 200 nM
[1]; test compound 10 μM
  Number of CN trapped metabolites: 0
  Number of GSH trapped metabolites: 0
  Number of SCA trapped metabolites: 1 (trace)

## CS(=O)(=O)N1CCC(COc2coc(CN3Cc4ccc(-c5cnco5)cc4C3)cc2=O)CC1 [Compound 2, 5-((1-(Methylsulfonyl)piperidin-4-yl)methoxy)-2-((5-(oxazol-5-yl)isoindolin-2-yl)methyl)-4H-pyran-4-one]
CYP11A1
  IC50: 101 to 200 nM
[1]; test compound 10 μM
  Number of CN trapped metabolites: 0
  Number of GSH trapped metabolites: 0
  Number of SCA trapped metabolites: 3 (trace)

## CC(c1cc(=O)c(OCC2CCN(S(C)(=O)=O)CC2)co1)N1Cc2ccc(-c3ncco3)cc2C1 (centres unmarked) [Compound 17b, 5-((1-(Methylsulfonyl)piperidin-4-yl)methoxy)-2-(1-(5-(oxazol-2-yl)isoindolin-2-yl)ethyl)-4H-pyran-4-one]
[1]; test compound 10 μM
  Number of CN trapped metabolites: 0
  Number of GSH trapped metabolites: 0
  Number of SCA trapped metabolites: 1 (trace)
